Results published in patent US5030654A, “Glutaramide diuretic agents” (Pfizer Inc., priority 1986, dated 1991).
Where two headings read alike, the source gives them in different places.

Experiments:
[1] = target: T1, neutral endopeptidase E.C.3.4.24.11 (Rattus norvegicus, UniProt P07861); experiment: inhibition of the neutral endopeptidase E.C.3.4.24.11 in vitro; assay type: biochemical
T1 construct: neutral endopeptidase preparation from rat kidney; from tissue; host or cells: rat kidney
T1 sequence (P07861 1-750): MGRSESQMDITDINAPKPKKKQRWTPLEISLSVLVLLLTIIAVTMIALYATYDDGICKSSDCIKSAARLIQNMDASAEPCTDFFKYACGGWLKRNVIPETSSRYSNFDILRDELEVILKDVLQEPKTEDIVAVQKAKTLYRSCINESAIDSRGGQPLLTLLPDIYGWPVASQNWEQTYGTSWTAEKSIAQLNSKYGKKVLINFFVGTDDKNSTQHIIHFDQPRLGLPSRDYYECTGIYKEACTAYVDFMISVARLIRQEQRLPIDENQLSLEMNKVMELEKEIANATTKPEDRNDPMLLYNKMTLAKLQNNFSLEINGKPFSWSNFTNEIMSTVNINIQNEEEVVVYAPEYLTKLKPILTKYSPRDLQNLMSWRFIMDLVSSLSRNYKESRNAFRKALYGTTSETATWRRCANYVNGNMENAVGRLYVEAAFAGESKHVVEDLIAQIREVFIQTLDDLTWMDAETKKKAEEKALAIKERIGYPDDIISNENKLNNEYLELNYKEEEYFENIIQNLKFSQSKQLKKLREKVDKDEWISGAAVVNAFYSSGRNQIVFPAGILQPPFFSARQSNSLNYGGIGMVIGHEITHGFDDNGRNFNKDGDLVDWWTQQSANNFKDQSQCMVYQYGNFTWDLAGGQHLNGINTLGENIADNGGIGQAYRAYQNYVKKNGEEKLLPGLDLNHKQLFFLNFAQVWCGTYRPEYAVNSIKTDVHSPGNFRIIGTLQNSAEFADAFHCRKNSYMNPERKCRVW
Protocol: Activity against neutral endopeptidase E.C.3.4.24.11 is assessed using a procedure based on the assay described by J. T. Gafford, R. A. Skidgel, E. G. Erdos and L. B. Hersh, Biochemistry, 1983, […], 3265-3271. The method involves determining the concentration of compound required to reduce by 50% the rate of release of radiolabelled hippuric acid from hippuryl-L-phenylalanyl-L-arginine by a neutral endopeptidase preparation from rat kidney.
(§1) The activity of the racemate and separated enantiomers of the cis-4-{1-[2-carboxy-3-(2-methoxyethoxy)propyl]-1-cyclopentanecarboxamido}- 1-cyclohexanecarboxylic acid was assessed by measuring their ability to inhibit the neutral endopeptidase E.C.3.4.24.11 in vitro or to induce natriuresis in mice in vivo following the procedures described herein.
The compounds were assessed for their ability to inhibit the neutral endopeptidase E.C.3.4.24.11 following the procedure described herein.

[2] = tested on: male mice (Charles River CDl); experiment: natriuresis in mice in vivo (saline loaded conscious mice); design: species or system mouse; conditions: i.v. via tail vein, urine collected for two hours
Protocol: The activity of the compounds as diuretic agents is determined by measuring their ability to increase urine output and sodium ion excretion in saline loaded conscious mice. In this test, male mice (Charles River CDl, 22-28 g) are acclimatised and starved overnight in metabowls. The mice are dosed intravenously via the tail vein, with the test compound dissolved in a volume of saline solution equivalent to 2.5% of body weight. Urine samples are collected each hour for two hours in pre-weighed tubes and analysed for electrolyte concentration. Urine volume and sodium ion concentration from the test animals are compared to a control group which received only saline.
as §1

[3] = neutral endopeptidase E.C.3.4.24.11, rat kidney preparation (Example 454), read-out: IC50
[4] = in vitro, neutral endopeptidase preparation from rat kidney, racemate and enantiomers (Example 445), read-out: IC50 against E.C.3.4.24.11

Compound	IC50 [1, 3] [nM]	IC50 [1, 4] [nM]	Natriuresis in mouse (i.v.) [2]
CCCCC1CC(NC(=O)C2(C[C@@H](COCCOC)C(=O)O)CCCC2)CCC1C(=O)O (single isomer, unassigned; isomer a) [Example 449 isomer A, 3-[1-(c-4-Carboxy-c-3-butylcyclohexyl-r-1-carbamoyl)cyclopentyl]-2S-(2-methoxyethoxymethyl)propanoic acid]	3.6	–	–
COCCOCC(CC1(C(=O)N[C@H]2CC[C@@H](C(=O)O)CC2)CCCC1)C(=O)O (mixture of isomers) [(±) R,S, cis-4-{1-[2-carboxy-3-(2-methoxyethoxy)propyl]-1-cyclopentanecarboxamido}-1-cyclohexanecarboxylic acid]	–	48	active at 3 mg/kg
COCCC(CC1(C(=O)N[C@H]2CC[C@@H](C(=O)O)CC2)CCCC1)C(=O)O (relative stereo) [Example 217, 3-{1-[(cis-4-Carboxy-cyclohexyl)carbamoyl]cyclopentyl}-2-(2-methoxyethyl)propanoic acid]	50	–	–
COCCOC[C@@H](CC1(C(=O)N[C@H]2CC[C@@H](C(=O)O)CC2)CCCC1)C(=O)O [(-) R, cis-4-{1-[2-carboxy-3-(2-methoxyethoxy)propyl]-1-cyclopentanecarboxamido}-1-cyclohexanecarboxylic acid]	–	< 1000	inactive at 3 mg/kg
COCCOC[C@H](CC1(C(=O)N[C@H]2CC[C@@H](C(=O)O)CC2)CCCC1)C(=O)O [(+) S, (S)-cis-4-{1-[2-Carboxy-3-(2-methoxyethoxy)propyl]-1-cyclopentanecarboxamido}-1-cyclohexanecarboxylic acid]	–	39	active at 1.5 mg/kg

Continued, in another order:

IC50 [1, 3] [nM]	IC50 [1, 4] [nM]	Compound	Natriuresis in mouse (i.v.) [2]
7.9	–	CCCCC1CC(NC(=O)C2(C[C@@H](COCCOC)C(=O)O)CCCC2)CCC1C(=O)O (stereo partly drawn) [Example 451, 3-[1-(c-4-Carboxy-t-3-butyl-r-1-carbamoyl)cyclopentyl]-2S-(2-methoxyethoxymethyl)propanoic acid]	–
8	–	CCCCC1CC(NC(=O)C2(CC(CCOC)C(=O)O)CCCC2)CCC1C(=O)O (centres unmarked) [Example 453, 3-[1-(c-4-Carboxy-c-3-butylcyclohexyl-r-1-carbamoyl)cyclopentyl]-2-(2-methoxyethyl)propanoic acid]	–
5.6	–	CCCCC1CC(NC(=O)C2(C[C@@H](COCCOC)C(=O)O)CCCC2)CCC1C(=O)O (single isomer, unassigned) [Example 449 isomer B, 3-[1-(c-4-Carboxy-c-3-butylcyclohexyl-r-1-carbamoyl)cyclopentyl]-2S-(2-methoxyethoxymethyl)propanoic acid]	–
